According to patent US12459952B2, “TREM2 modulators” (Muna Therapeutics ApS, priority 2024, dated 2025):

Target: T1, Human TREM2 (Homo sapiens, UniProt Q9NZC2)
T1 construct: expressed in transfected cells
Test: Human TREM2 cellular phospho-Syk AlphaLISA assay in HEK293/DAP12+TREM2 stable cell line
Type: cell-based
Details: HEK293/DAP12+TREM2 cells; for Emax: maximal response relative to the maximal response of the reference agonist, phospho-Syk AlphaLISA; for EC50: phospho-Syk (Tyr525/526) AlphaLISA signal, 30 min incubation
Text: Human TREM2, in vitro Measurement of Triggering Receptor Expressed on Myeloid Cells 2 activity using cellular phosphorylation of Spleen Tyrosine Kinase (“Syk”) Assay
HEK-293 cells were co-transfected with separate plasmids encoding TREM2 and DAP12 to generate a stable cell line. After antibiotic selection, functional clone pool analysis and two successive limiting dilutions, the final clone “HEK293/DAP12+TREM2” underwent a qPCR analysis and a pharmacological validation.
TREM2 signaling through DAP12 was monitored in the HEK293/DAP12+TREM2 stable cell line by measuring the phosphorylation levels of the Syk kinase using the commercially available AlphaLISA SureFire Ultra p-SYK (Tyr525/526) Assay Kit (PerkinElmer #ALSU-PSYK), based on the Perkin Elmer AlphaScreen/AlphaLISA technology.
Compounds are transferred to the test plate and tested in full dose response, 8 concentrations in quadruplicate data points. Compound serial dilutions were performed at Cybi-Felix instrument in 100% DMSO and the dose response curves were assembled in automated fashion in 384MPT at Hamilton STARlet instrument. All the stock solutions were prepared at 20 mM in 100% DMSO. For compounds testing, the starting concentration was 100 μM, dilution steps 1:6. A different concentration's range was adapted for compound's activity based on the preliminary results. Finally, a 384MPT reformatted for all compounds at 8 concentrations, quadruplicates, was used as “mother to child” process with a CyBi@-Well dispenser in which 1 μL of each compound was moved into a destination plate pre-filled with […] of EMEM cell culture medium (BIOWHITTAKER_cat.BE12-125F), thus obtaining 3× concentrated compounds working solution. In columns 1-2 and 23-24 the control wells were added. In particular, dose response curves of a reference control agonist were included in column 1 and 24 as reference control agonist (Reference control agonists used include Human TREM2 polyclonal Antibody AF1828: R&D Systems; Human TREM2 monoclonal Antibody MAB1828: R&D Systems). The dose response curves were tested starting at 30 μM, dilution step 1:6. Both “source” compound plate and “destination” compound plate were barcoded and a relationship between the two plates was thus generated.
HEK293/DAP12+TREM2 cells were cultured in EMEM medium supplemented with IX Penicillin/Streptomycin (BIOWHITTAKER_cat.DE17-602E), ULTRAGLUTAMINE I 200 mM, 10% Fetal Bovine Serum plus antibiotics referred to as “HEK293 Culture Medium”. The day before the experiment, cells were detached by gentle wash with DPBS, followed by 5 min incubation at 37° C. with Trypsin solution. Cells were then diluted in HEK293 Culture Medium without antibiotics, counted and seeded into 384-well poly-D-Lysine coated microplates black/clear bottom (GREINER 781946) at a density of 10,000 cells/well in 25 μL/well by the use of a MATRIX WellMate dispenser. Plates were placed into a humidified cell culture incubator at 37° C. with 5% CO2 until the experimental day. 20-24 hours after seeding mature medium was removed and replaced with 10 μL/well of EMEM cell medium supplemented with 0.1% Pluronic F-68 non-ionic surfactant (Thermofisher, 24040032), referred to as “Assay Buffer”, using the CyBi@-Well instrument. Then 5 μL/well of Assay Buffer containing 3× concentrated test compounds or the reference control agonist (in 0.5% final DMSO concentration) were added to the cells with the CyBi@-Well instrument. Cell plates were incubated for 30 min into a humidified cell culture incubator at 37° C. with 5% CO2, then the medium was removed by manually discard. 20 μL/well of lysis buffer were dispensed using the CyBi@-Well instrument and plates were incubated for 10 min at room temperature on a plate shaker (350 rpm). Then, 10 μL/well of lysate were transferred to the Alpha plates.
The CyBi@-Well instrument was used to dispense 5 μL/well of AlphaLISA Acceptor Bead Solution in IX Immunoassay buffer (Perkin Elmer AL000F). […]

T1 sequence (Q9NZC2 19-230): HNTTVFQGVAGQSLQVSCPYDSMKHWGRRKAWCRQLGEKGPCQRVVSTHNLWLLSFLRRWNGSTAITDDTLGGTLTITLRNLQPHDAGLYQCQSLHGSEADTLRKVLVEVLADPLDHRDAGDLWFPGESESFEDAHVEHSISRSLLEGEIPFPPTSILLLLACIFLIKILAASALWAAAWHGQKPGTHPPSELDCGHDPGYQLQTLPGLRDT
T1 sequence (O43914 22-113 partner): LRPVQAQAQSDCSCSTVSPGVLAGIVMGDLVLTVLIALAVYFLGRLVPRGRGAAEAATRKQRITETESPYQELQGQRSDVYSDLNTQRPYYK

Row | Structure (SMILES) | Emax | EC50
1 | COc1ccc(-c2nc(N3CC(Oc4cnn(C5CC5)c4)C3)nc3c(=O)n(C)c(C(F)(F)F)nc23)cn1 [Example 37, 6-(3-((1-cyclopropyl-1H-pyrazol-4-yl)oxy)azetidin-1-yl)-8-(6-methoxypyridin-3-yl)-3-methyl-2-(trifluoromethyl)pyrimido[5,4-d]pyrimidin-4(3H)-one] | 75 to 110% | 100 to 1000 nM
2 | Cn1c(C(F)(F)F)nc2c(-c3ccc(C#N)cc3F)nc(N3CC(Oc4cnn(C5CCC5)c4)C3)nc2c1=O [Example 16, 4-(2-(3-((1-cyclobutyl-1H-pyrazol-4-yl)oxy)azetidin-1-yl)-7-methyl-8-oxo-6-(trifluoromethyl)-7,8-dihydropyrimido[5,4-d]pyrimidin-4-yl)-3-fluorobenzonitrile] | 75 to 110% | 10 to 100 nM
3 | Cc1c(OC2CN(c3nc(-c4ccc(C#N)cc4F)c4nc(C(F)(F)F)n(C)c(=O)c4n3)C2)cnn1C [Example 8, 4-(2-(3-((1,5-dimethyl-1H-pyrazol-4-yl)oxy)azetidin-1-yl)-7-methyl-8-oxo-6-(trifluoromethyl)-7,8-dihydropyrimido[5,4-d]pyrimidin-4-yl)-3-fluorobenzonitrile] | < 75% | 100 to 1000 nM
4 | CN(c1cnn(C2CC2)c1)C1CN(c2nc(-c3ccc(F)cc3F)c3nc(C(F)(F)F)n(C)c(=O)c3n2)C1 [Example 33, 6-(3-((1-cyclopropyl-1H-pyrazol-4-yl)(methyl)amino)azetidin-1-yl)-8-(2,4-difluorophenyl)-3-methyl-2-(trifluoromethyl)pyrimido[5,4-d]pyrimidin-4(3H)-one] | 75 to 110% | 100 to 1000 nM
5 | Cn1c(C(F)(F)F)nc2c(-c3ccc(F)cc3F)nc(N3CC(Oc4cnn(C5CC5)c4)C3)cc2c1=O [Example 40, 6-(3-((1-cyclopropyl-1H-pyrazol-4-yl)oxy)azetidin-1-yl)-8-(2,4-difluorophenyl)-3-methyl-2-(trifluoromethyl)pyrido[3,4-d]pyrimidin-4(3H)-one] | < 75% | 100 to 1000 nM
6 | Cn1c(C(F)(F)F)nc2c(-c3ccc(C#N)cc3F)nc(N3CC(Oc4cnn(CC(F)F)c4)C3)nc2c1=O [Example 17, 4-(2-(3-((1-(2,2-difluoroethyl)-1H-pyrazol-4-yl)oxy)azetidin-1-yl)-7-methyl-8-oxo-6-(trifluoromethyl)-7,8-dihydropyrimido[5,4-d]pyrimidin-4-yl)-3-fluorobenzonitrile] | 75 to 110% | 100 to 1000 nM
7 | Cn1c(C(F)(F)F)nc2c(-c3ccc(F)cc3F)nc(N3CC(Cc4cnn(C5CC5)c4)C3)nc2c1=O [Example 31, 6-(3-((1-cyclopropyl-1H-pyrazol-4-yl)methyl)azetidin-1-yl)-8-(2,4-difluorophenyl)-3-methyl-2-(trifluoromethyl)pyrimido[5,4-d]pyrimidin-4(3H)-one] | 75 to 110% | 100 to 1000 nM
8 | CCCn1cc(OC2CN(c3nc(-c4ccc(C#N)cc4F)c4nc(C(F)(F)F)n(C)c(=O)c4n3)C2)cn1 [Example 12, 3-fluoro-4-(7-methyl-8-oxo-2-(3-((1-propyl-1H-pyrazol-4-yl)oxy)azetidin-1-yl)-6-(trifluoromethyl)-7,8-dihydropyrimido[5,4-d]pyrimidin-4-yl)benzonitrile] | 75 to 110% | 100 to 1000 nM
9 | Cn1c(C(F)(F)F)nc2c(-c3ccc(C#N)cc3F)nc(N3CC(Oc4cnn(C(F)F)c4)C3)nc2c1=O [Example 14, 4-(2-(3-((1-(difluoromethyl)-1H-pyrazol-4-yl)oxy)azetidin-1-yl)-7-methyl-8-oxo-6-(trifluoromethyl)-7,8-dihydropyrimido[5,4-d]pyrimidin-4-yl)-3-fluorobenzonitrile] | 75 to 110% | 10 to 100 nM
10 | Cn1cc(-c2nc(N3CC(Oc4cnn(C5CC5)c4)C3)nc3c(=O)n(C)c(C(F)(F)F)nc23)ccc1=O [Example 39, 6-(3-((1-cyclopropyl-1H-pyrazol-4-yl)oxy)azetidin-1-yl)-3-methyl-8-(1-methyl-6-oxo-1,6-dihydropyridin-3-yl)-2-(trifluoromethyl)pyrimido[5,4-d]pyrimidin-4(3H)-one] | 75 to 110% | 100 to 1000 nM

Results, then the compound that gave them:

Row | Emax | EC50 | Structure (SMILES)
11 | 75 to 110% | 10 to 100 nM | Cn1c(C(F)(F)F)nc2c(-c3ccc(C#N)cc3F)nc(N3CC(Oc4ccnc(C(F)F)c4)C3)nc2c1=O [Example 23, 4-(2-(3-((2-(difluoromethyl)pyridin-4-yl)oxy)azetidin-1-yl)-7-methyl-8-oxo-6-(trifluoromethyl)-7,8-dihydropyrimido[5,4-d]pyrimidin-4-yl)-3-fluorobenzonitrile]
12 | < 75% | 100 to 1000 nM | Cc1ncncc1OC1CN(c2nc(-c3ccc(C#N)cc3F)c3nc(C(F)(F)F)n(C)c(=O)c3n2)C1 [Example 29, 3-fluoro-4-(7-methyl-2-(3-((4-methylpyrimidin-5-yl)oxy)azetidin-1-yl)-8-oxo-6-(trifluoromethyl)-7,8-dihydropyrimido[5,4-d]pyrimidin-4-yl)benzonitrile]
13 | < 75% | 100 to 1000 nM | Cc1ncc(OC2CN(c3nc(-c4ccc(C#N)cc4F)c4nc(C(F)(F)F)n(C)c(=O)c4n3)C2)cn1 [Example 28, 3-fluoro-4-(7-methyl-2-(3-((2-methylpyrimidin-5-yl)oxy)azetidin-1-yl)-8-oxo-6-(trifluoromethyl)-7,8-dihydropyrimido[5,4-d]pyrimidin-4-yl)benzonitrile]
14 | 75 to 110% | 10 to 100 nM | Cn1c(C(F)(F)F)nc2c(-c3ccc(C#N)cc3F)nc(N3CC(Oc4ccnc(C5CC5)c4)C3)nc2c1=O [Example 22, 4-(2-(3-((2-cyclopropylpyridin-4-yl)oxy)azetidin-1-yl)-7-methyl-8-oxo-6-(trifluoromethyl)-7,8-dihydropyrimido[5,4-d]pyrimidin-4-yl)-3-fluorobenzonitrile]
15 | < 75% | > 1000 nM | Cn1c(C(F)(F)F)nc2c(-c3ccc(C#N)cc3F)nc(N3CC(Oc4nncs4)C3)nc2c1=O [Example 2, 4-(2-(3-((1,3,4-thiadiazol-2-yl)oxy)azetidin-1-yl)-7-methyl-8-oxo-6-(trifluoromethyl)-7,8-dihydropyrimido[5,4-d]pyrimidin-4-yl)-3-fluorobenzonitrile]
16 | 75 to 110% | 100 to 1000 nM | Cn1ncc(OC2CN(c3nc(-c4ccc(C#N)cc4F)c4nc(C(F)(F)F)n(C)c(=O)c4n3)C2)c1Cl [Example 13, 4-(2-(3-((5-chloro-1-methyl-1H-pyrazol-4-yl)oxy)azetidin-1-yl)-7-methyl-8-oxo-6-(trifluoromethyl)-7,8-dihydropyrimido[5,4-d]pyrimidin-4-yl)-3-fluorobenzonitrile]
17 | 75 to 110% | 10 to 100 nM | Cn1c(C(F)(F)F)nc2c(-c3ccc(C#N)cc3F)nc(N3CC(Oc4ccnc(OC(F)F)c4)C3)nc2c1=O [Example 24, 4-(2-(3-((2-(difluoromethoxy)pyridin-4-yl)oxy)azetidin-1-yl)-7-methyl-8-oxo-6-(trifluoromethyl)-7,8-dihydropyrimido[5,4-d]pyrimidin-4-yl)-3-fluorobenzonitrile]
18 | 75 to 110% | < 10 nM | COc1cc(OC2CN(c3nc(-c4ccc(C#N)cc4F)c4nc(C(F)(F)F)n(C)c(=O)c4n3)C2)ccn1 [Example 21, 3-fluoro-4-(2-(3-((2-methoxypyridin-4-yl)oxy)azetidin-1-yl)-7-methyl-8-oxo-6-(trifluoromethyl)-7,8-dihydropyrimido[5,4-d]pyrimidin-4-yl)benzonitrile]
